From patent publication US20260191194A1, “OXABICYCLOALKANE COMPOUNDS, PREPARATION METHOD THEREFOR, AND HERBICIDAL COMPOSITION AND USE THEREOF” (QINGDAO KINGAGROOT CHEMICAL COMPOUND CO., LTD., priority 2022, published 2026)

Experiments:
Assay type in all cases: in vivo
Soliva anthemifolia = experiment: Activity test of compositions, early post-emergence foliage spray (F-EP); conditions: 21 days after treatment
Procedure: (§1) The required active ingredient B was purchased from a reagent company or synthesized by a known method. The technical materials were all dissolved with acetone solvents and diluted with an aqueous solution of 0.1% Tween 80 emulsifier, which were to be used immediately after dilution.
(§2) Weeds were cultivated by a pot culture method. […] Weed seeds with plump and uniform grains were selected, soaked in lukewarm water at 25° C. for 6 hours, and accelerated to germinate in a 28° C. biochemical incubator (in darkness). The weed seeds that had just germinated were evenly placed on the surface of the soil and then covered with 0.5-1 cm soil according to the sizes of seeds.
(§3) The culture was carried out in a controllable sunlight greenhouse at 20 to 30° C., in natural light, and with relative humidity of 57% to 72%.
(§4) Each treatment was repeated 4 times. Four pots with 20 weed seeds sowed per pot were treated each time.
(§5) The agents were used once in total in the experiment. In the stage of 1-2 leaves, the weeds were thinned out to maintain 10 strains per treatment for later use.
(§6) The well-cultured test materials were evenly placed on a platform with an area of 0.5 m^2, and foliage spraying was carried out by the 3WP-2000-type walking spray tower at a dosage of 450 kg/ha and a spray pressure of 0.3 MPa. After all the solution was sprayed, the air valve was closed, and 30 seconds later, the door of the spray tower was opened, and the nutritional bowl was taken out. Then the air valve was opened, and the spray tube was cleaned by spraying 50 ml of water. The test materials were transferred to and routinely cultured in a greenhouse after the treatment.
(§7) A method for investigating absolute numbers was employed. Whole seedlings of survival weeds were cut off with a blade along the soil surface, and the fresh weight of the weeds was weighed using an analytical balance. For dead weeds, the fresh weight thereof was zero.
(§8) The investigation was performed 21 days after the treatment for once in total.
(§9) The theoretical fresh weight inhibition rate of a mixed combination of each treatment was calculated by the Gowing method (E0=X+Y−X*Y/100). […] An optimal ratio was determined according to the actual control effects, characteristics of herbicides, and balance of the formulation. In the formula, X represents the fresh weight inhibition rate of the active ingredient A in a dosage of P; Y represents the fresh weight inhibition rate of the active ingredient B in a dosage of Q. The statistical results are shown in Table 4.

Digitaria ischaemum = experiment: Activity test of compositions, soil sealing treatment (S); conditions: 21 days after treatment
Excerpt: as §1
The test soil was quantitatively filled to 3/4 of the pot, and then watered from the bottom of the pot to completely wet the soil to saturation. The test weed seeds were accelerated to just germinate, and then evenly and quantitatively sowed on the soil surface, covered with 0.5-1 cm soil according to the sizes of the seeds, and ready for use 72 hours after sowing.
as §4
(§10) The well-sowed test materials were evenly placed on a platform with an area of 0.5 m^2, and foliage spraying was carried out by the 3WP-2000-type walking spray tower at a dosage of 450 kg/ha and a spray pressure of 0.3 MPa. After all the solution was sprayed, the air valve was closed, and 30 seconds later, the door of the spray tower was opened, and the nutritional bowl was taken out. Then the air valve was opened, and the spray tube was cleaned by spraying 50 ml of water.
as §7, §8, §9

Echinochloa glabrescens [1] = experiment: as above; conditions: 21 days after treatment
Procedure: as §1
(§11) Weeds were cultivated in a controllable sunlight greenhouse at 20 to 30° C., in natural light, and with relative humidity of 57% to 72%. […] The test soil was quantitatively filled to 3/4 of the pot, and then watered from the bottom of the pot to completely wet the soil to saturation. The test weed seeds were accelerated to just germinate, and then evenly and quantitatively sowed on the soil surface, covered with 0.5-1 cm soil according to the sizes of the seeds, and ready for use 72 hours after sowing.
as §4, §10, §7, §8, §9

[2] = system: Echinochloa crus-galli var. austrojaponensis; experiment: Activity test of compositions, early post-emergence foliage spray (F-EP); conditions: 21 days after treatment; for pest or weed control at 450 g/ha: B alone 450 g a.i./ha; for pest or weed control at 300 g/ha: B alone 300 g a.i./ha
Procedure: as §1, §2, §3, §4, §5, §6, §7, §8, §9

Arivela viscosa = experiment: Activity test of compositions, soil sealing treatment (S); conditions: 21 days after treatment
Procedure: as §1, §11, §4, §10, §7, §8, §9

Cyperus glomeratus = experiment: as above; conditions: 21 days after treatment
Procedure: as §1, §11, §4, §10, §7, §8, §9

Echinochloa glabrescens [3] = experiment: Activity test of compositions, early post-emergence foliage spray (F-EP); conditions: 21 days after treatment
Procedure: as §1, §2, §3, §4, §5, §6, §7, §8, §9

Oxybasis glauca = experiment: Activity test of compositions, soil sealing treatment (S); conditions: B alone 15 g a.i./ha, 21 days after treatment
Procedure: as §1, §11, §4, §10, §7, §8, §9

[4] = Echinochloa crus-galli, 504 h, read-out: Control effect of B applied alone in a corresponding dose
[5] = B alone 30 g a.i./ha (with A 60)

## CC(C)CCCCCOC(=O)COc1ccc(Cl)cc1Cl [2,4-D-isooctyl]
Soliva anthemifolia; B alone 225 g a.i./ha
  Control effect of B applied alone in a corresponding dose: 61.4%

## Cc1cc(Cl)ccc1OCC(=O)OCCCCCC(C)C [MCPA-isooctyl]
Soliva anthemifolia; B alone 300 g a.i./ha
  Control effect of B applied alone in a corresponding dose: 65%

## CCOCN(C(=O)CCl)c1c(C)cccc1CC [acetochlor]
Digitaria ischaemum; B alone 300 g a.i./ha
  Control effect of B applied alone in a corresponding dose: 41.3

## COP(=S)(OC)SCC(=O)N(c1ccc(Cl)cc1)C(C)(C)C [anilofos]
Echinochloa glabrescens [1]; B alone 75 g a.i./ha
  Control effect of B applied alone in a corresponding dose: 37.2

## CCNc1nc(Cl)nc(NC(C)C)n1 [atrazine]
[2]; [4]
  pest or weed control at 450 g/ha: 43.4%

## CC[C@H](Oc1ccc(F)c(C(F)(F)F)c1)C(=O)NCc1ccccc1 [beflubutamid-M]
Arivela viscosa; B alone 90 g a.i./ha
  Control effect of B applied alone in a corresponding dose: 55.2%

## COC(=O)c1ccccc1CS(=O)(=O)NC(=O)Nc1nc(OC)cc(OC)n1 [bensulfuronmethyl, bensulfuron-methyl]
Cyperus glomeratus; B alone 7.5 g a.i./ha
  Control effect of B applied alone in a corresponding dose: 27.5%

## CS(=O)(=O)c1ccc(C(=O)C2=C(Sc3ccccc3)C3CCC(C3)C2=O)c(Cl)c1 (stereo not shown) [benzobicyclon]
[2]; B alone 60 g a.i./ha
  Control effect of B applied alone in a corresponding dose: 48.7%

## Cc1nn(C)cc1C(=O)Oc1c(C(=O)c2ccc(C(F)(F)F)cc2S(C)(=O)=O)c(C)nn1C [bipyrazone]
[2]; [5]
  Control effect of B applied alone in a corresponding dose: 52.7%

## CC1(C)CON(Cc2ccc(Cl)cc2Cl)C1=O [bixlozone]
Arivela viscosa; B alone 120 g a.i./ha
  Control effect of B applied alone in a corresponding dose: 74.5%

## CCCCOCN(C(=O)CCl)c1c(CC)cccc1CC [butachlor]
Echinochloa glabrescens [1]; B alone 300 g a.i./ha
  Control effect of B applied alone in a corresponding dose: 41.3

## CCC(C)Nc1c([N+](=O)[O-])cc(C(C)(C)C)cc1[N+](=O)[O-] (stereo not shown) [butralin]
Digitaria ischaemum; B alone 900 g a.i./ha
  Control effect of B applied alone in a corresponding dose: 60.2

## Cc1ccc(NC(=O)N(C)C)cc1Cl [chlorotoluron]
[2]; [4]
  pest or weed control at 450 g/ha: 37.6%

## CC1(C)CON(Cc2ccccc2Cl)C1=O [clomazone]
Arivela viscosa; B alone 75 g a.i./ha
  Control effect of B applied alone in a corresponding dose: 70.6%

## CCCCOC(=O)[C@@H](C)Oc1ccc(Oc2ccc(C#N)cc2F)cc1 [cyhalofop-butyl]
Echinochloa glabrescens [3]; B alone 150 g a.i./ha
  Control effect of B applied alone in a corresponding dose: 46.6%

## O=C(Nc1ccc(F)cc1F)c1cccnc1Oc1cccc(C(F)(F)F)c1 [diflufenican]
Arivela viscosa; B alone 52.5 g a.i./ha
  Control effect of B applied alone in a corresponding dose: 65.8%

## CCn1ncc(C(=O)c2ccc(S(C)(=O)=O)c(COCC(F)(F)F)c2Cl)c1OC(=O)c1cn(C)nc1C [fenpyrazone]
[2]; [5]
  Control effect of B applied alone in a corresponding dose: 53.1%

## CCN(C(=O)n1nnn(-c2ccccc2Cl)c1=O)C1CCCCC1 [fentrazamide]
Echinochloa glabrescens [1]; B alone 75 g a.i./ha
  Control effect of B applied alone in a corresponding dose: 40.3

## COc1c(Cl)ccc(-c2nc(C(=O)OCc3ccccc3)c(Cl)c(N)c2F)c1F [florpyrauxifenbenzyl, florpyrauxifen-benzyl]
Soliva anthemifolia; B alone 7.5 g a.i./ha
  Control effect of B applied alone in a corresponding dose: 60.2%

## Cc1ccn2nc(S(=O)(=O)Nc3c(F)cccc3F)nc2n1 [flumetsulam]
Oxybasis glauca
  Control effect of B applied alone in a corresponding dose: 57.9

## Nc1c(Cl)c(F)nc(OCC(=O)O)c1Cl [fluroxypyr]
Soliva anthemifolia; B alone 75 g a.i./ha
  Control effect of B applied alone in a corresponding dose: 66.7%

## CC(C)c1ccc(NC(=O)N(C)C)cc1 [isoproturon]
[2]; [4]
  pest or weed control at 300 g/ha: 31.3%

## CS(=O)(=O)c1cc(C(F)(F)F)ccc1C(=O)c1cnoc1C1CC1 [isoxaflutole]
[2]; Echinochloa crus-galli, 504 h, B alone 30 g a.i./ha (with A 60), read-out: Control effect of B applied alone in a corresponding dose
  pest or weed control at 30 g/ha: 47.8%

## CN(C(=O)COc1nc2ccccc2s1)c1ccccc1 [mefenacet]
Echinochloa glabrescens [1]; B alone 150 g a.i./ha
  Control effect of B applied alone in a corresponding dose: 37.9

## CS(=O)(=O)c1ccc(C(=O)C2C(=O)CCCC2=O)c([N+](=O)[O-])c1 [mesotrione]
[2]; Echinochloa crus-galli, 504 h, B alone 60 g a.i./ha (with A 60), read-out: Control effect of B applied alone in a corresponding dose
  pest or weed control at 60 g/ha: 51.7%

## C[C@@H](Oc1ccc(Oc2nc3ccc(Cl)cc3o2)cc1)C(=O)N(C)c1ccccc1F [metamifop]
Echinochloa glabrescens [3]; B alone 75 g a.i./ha
  Control effect of B applied alone in a corresponding dose: 58.8%

## CSc1nnc(C(C)(C)C)c(=O)n1N [metribuzin]
[2]; Echinochloa crus-galli, 504 h, B alone 150 g a.i./ha, read-out: Control effect of B applied alone in a corresponding dose
  pest or weed control at 150 g/ha: 42.9%

## CC(C)Oc1cc(-n2nc(C(C)(C)C)oc2=O)c(Cl)cc1Cl [oxadiazon]
Cyperus glomeratus; B alone 90 g a.i./ha
  Control effect of B applied alone in a corresponding dose: 32.4%

## CC1=C(c2ccccc2)C(=O)N(C(C)(C)c2cc(Cl)cc(Cl)c2)CO1 [oxaziclomefone]
Cyperus glomeratus; B alone 22.5 g a.i./ha
  Control effect of B applied alone in a corresponding dose: 58.5%

## CCOc1cc(Oc2ccc(C(F)(F)F)cc2Cl)ccc1[N+](=O)[O-] [oxyfluorfen]
Cyperus glomeratus; B alone 45 g a.i./ha
  Control effect of B applied alone in a corresponding dose: 37.2%

## CCC(CC)Nc1c([N+](=O)[O-])cc(C)c(C)c1[N+](=O)[O-] [pendimethalin]
Digitaria ischaemum; B alone 375 g a.i./ha
  Control effect of B applied alone in a corresponding dose: 65.7

## COc1cnc(OC)n2nc(NS(=O)(=O)c3c(OCC(F)F)cccc3C(F)(F)F)nc12 [penoxsulam]
Cyperus glomeratus; B alone 7.5 g a.i./ha
  Control effect of B applied alone in a corresponding dose: 26.4%

## CCCOCCN(C(=O)CCl)c1c(CC)cccc1CC [pretilachlor]
Echinochloa glabrescens [1]; B alone 150 g a.i./ha
  Control effect of B applied alone in a corresponding dose: 43.6

## CCCC(=NOCC(C)Oc1ccc(Cl)cc1)C1=C(O)CC(C2CCCSC2)CC1=O (stereo not shown) [profoxydim]
Echinochloa glabrescens [3]; B alone 45 g a.i./ha
  Control effect of B applied alone in a corresponding dose: 54.7%

## CSc1nc(NC(C)C)nc(NC(C)C)n1 [prometryn]
[2]; [4]
  pest or weed control at 300 g/ha: 41%

## C#CCN(C)c1c(C#N)cnn1-c1nn2c(c1Cl)CCCC2 [pyraclonil]
Cyperus glomeratus; B alone 45 g a.i./ha
  Control effect of B applied alone in a corresponding dose: 48.6%

## CCOC(=O)c1cnn(C)c1S(=O)(=O)NC(=O)Nc1nc(OC)cc(OC)n1 [pyrazosulfuronethyl, pyrazosulfuron-ethyl]
Cyperus glomeratus; B alone 7.5 g a.i./ha
  Control effect of B applied alone in a corresponding dose: 29.8%

## Cn1nc(C(F)(F)F)c(CS(=O)(=O)C2=NOC(C)(C)C2)c1OC(F)F [pyroxasulfone]
Digitaria ischaemum; B alone 45 g a.i./ha
  Control effect of B applied alone in a corresponding dose: 46.3

## CS(=O)(=O)c1ccc(C(=O)C2C(=O)CCCC2=O)c(Cl)c1COCC1CCCO1 (stereo not shown) [tefuryltrione]
[2]; B alone 15 g a.i./ha
  Control effect of B applied alone in a corresponding dose: 51.7%

## CCNc1nc(Cl)nc(NC(C)(C)C)n1 [terbuthylazine]
[2]; Echinochloa crus-galli, 504 h, B alone 225 g a.i./ha, read-out: Control effect of B applied alone in a corresponding dose
  pest or weed control at 225 g/ha: 48.4%

## CC(C)N(C(=O)SCC(Cl)=C(Cl)Cl)C(C)C [triallate]
Digitaria ischaemum; B alone 300 g a.i./ha
  Control effect of B applied alone in a corresponding dose: 38.4

## Cc1cc(C)n(Cc2c(S(C)(=O)=O)ccc(C(=O)c3c(C)nn(C)c3OC(=O)c3cn(C)nc3C)c2Cl)n1 [tripyrasulfone]
[2]; B alone 60 g a.i./ha
  Control effect of B applied alone in a corresponding dose: 50.4%

## oxadiargyl
Cyperus glomeratus; B alone 45 g a.i./ha
  Control effect of B applied alone in a corresponding dose: 42.5%
